Laboratory results as given in PMC7136958, “Targeting the pregnane X receptor using microbial metabolite mimicry” (EMBO Molecular Medicine, 2020).
Where “and” joins values, the source holds several entries; their conditions need not be identical. Equal values may be shown once.

Legend:
PXR [1] = target: T1, PXR (Homo sapiens, UniProt O75469); experiment: PXR reporter (p3A4-luc luciferase) assay in LS180 cells transiently transfected with wild-type PXR; conditions: for FOLD INDUCTION of PXR reporter luciferase activity: 24 h, over UT
T1 sequence (O75469 1-434): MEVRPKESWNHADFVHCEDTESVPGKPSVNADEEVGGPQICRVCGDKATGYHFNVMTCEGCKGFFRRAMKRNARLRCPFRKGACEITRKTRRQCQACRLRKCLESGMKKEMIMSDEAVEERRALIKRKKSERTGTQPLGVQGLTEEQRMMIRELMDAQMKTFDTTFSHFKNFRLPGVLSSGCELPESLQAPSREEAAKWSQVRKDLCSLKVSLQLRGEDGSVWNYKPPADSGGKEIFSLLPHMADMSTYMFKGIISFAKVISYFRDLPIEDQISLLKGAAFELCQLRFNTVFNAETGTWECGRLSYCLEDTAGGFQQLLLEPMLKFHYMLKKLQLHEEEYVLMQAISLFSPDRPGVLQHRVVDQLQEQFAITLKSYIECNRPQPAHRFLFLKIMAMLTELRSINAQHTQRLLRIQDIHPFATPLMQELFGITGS
Description: Incubations were performed in four technical replicates. After the treatments, cells were lysed and luciferase activity was measured on Tecan Infinite M200 Pro plate reader (Schoeller Instruments, Prague, Czech Republic). The data are expressed as fold induction ± SD of luciferase activity over the control cells (agonistic mode—in the absence of a model ligand) or as a percentage of maximal activation ± SD (antagonistic mode—in the presence of a model ligand). […] For all the transfection experiments, specifically multiplexed transfections, the control wells were mock‐transfected ([…]). However, to exclude non‐specific binding of PXR (or other factors) upstream of the luciferase gene within non‐PXR‐binding elements, we performed pilot experiments in different cell passages (P11, P14, and P17) of LS174T cells using a mock luciferase plasmid (luciferase not containing an upstream PXR‐binding element of the CYP3A4 promoter).

AhR = target: T2, AhR (Homo sapiens, UniProt P35869); experiment: AhR reporter assay, HepG2 cells stably expressing pCYP1A1 luciferase (AZ-AHR); type: cell-based; conditions: for FOLD INDUCTION (AZ-AHR luciferase): AZ-AHR cells, fold vs DMSO
T2 construct: endogenous in cells; host or cells: AZ-AHR (HepG2)
T2 sequence (P35869 11-848): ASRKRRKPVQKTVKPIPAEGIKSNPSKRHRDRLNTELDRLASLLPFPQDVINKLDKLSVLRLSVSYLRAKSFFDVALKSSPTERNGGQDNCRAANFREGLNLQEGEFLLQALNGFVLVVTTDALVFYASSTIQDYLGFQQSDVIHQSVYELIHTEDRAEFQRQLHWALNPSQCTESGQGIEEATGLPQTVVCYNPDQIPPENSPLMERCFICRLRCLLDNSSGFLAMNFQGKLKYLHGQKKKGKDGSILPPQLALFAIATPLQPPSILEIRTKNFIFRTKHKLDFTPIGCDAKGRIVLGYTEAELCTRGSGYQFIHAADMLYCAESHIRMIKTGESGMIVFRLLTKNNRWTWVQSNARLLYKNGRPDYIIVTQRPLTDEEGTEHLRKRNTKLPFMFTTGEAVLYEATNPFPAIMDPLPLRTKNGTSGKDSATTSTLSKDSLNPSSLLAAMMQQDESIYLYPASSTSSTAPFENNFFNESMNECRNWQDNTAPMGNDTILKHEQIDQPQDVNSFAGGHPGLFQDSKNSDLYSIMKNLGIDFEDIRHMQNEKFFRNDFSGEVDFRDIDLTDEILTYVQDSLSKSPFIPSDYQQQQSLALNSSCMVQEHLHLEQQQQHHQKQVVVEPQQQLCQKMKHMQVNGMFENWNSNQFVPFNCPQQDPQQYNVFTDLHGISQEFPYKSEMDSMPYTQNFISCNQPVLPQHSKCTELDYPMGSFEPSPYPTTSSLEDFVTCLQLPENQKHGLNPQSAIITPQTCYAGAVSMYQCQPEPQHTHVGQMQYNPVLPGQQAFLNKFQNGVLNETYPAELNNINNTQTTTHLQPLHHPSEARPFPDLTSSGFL
Description: Incubations were performed in four technical replicates.

PXR [2] = target: T1, PXR; experiment: Ligand efficiency metric (LEM) analysis; design: expressed in transfected cells; host or cells: LS180; conditions: NSEI-nBEI plane, from PXR reporter Emax
Source text: Ligand efficiency metric (LEM) analysis for FKK ligand efficiency. The ligand efficiency metrics (LEMs) of compounds FKK1 to 10 and FKK999 as a reference compound, have been analyzed by using a web tool named AtlasCBS which represents LEMs as variables for a Cartesian mapping of chemico-biological space (CBS). In particular, Cartesian planes combine three critical variables in drug discovery (affinity, size, and polarity) into easily interpretable ‘efficiency planes’ useful to guide a drug discovery process. In the Cartesian plane, each target:ligand pair appears as a point whose coordinates are given by pairs of values derived from the affinity of the ligand toward the target (Ki or equivalent) in relation to its size (MW or number of non-hydrogen atoms NHA), and its polarity (expressed as Polar Surface Area, PSA, or number of polar atoms, NPOL = count of N + O). The first one represents a size-related LEM and the second a polarity-related LEM. Consistently, compounds that correspond to marketed drugs typically occupy the upper right quadrant of the plots (‘Nort h-East’ direction, NE), where both the efficiency -pe r-size and efficiency -per-polarity are optimized 1,2.
Our results are represented in the efficiency plane NS EI-nBEI where:
NSEI = –log Ki/NPOL (N, O) = pKi/NPOL (N, O)
As a measure of activity of the above compounds, the reciprocal of the percentage efficacy values (1/Efficacy [%]) obtained in the PXR-dependent luciferase activity test (Emax values from Fig. 1) were used in lieu of the affinity constants (Ki in the above equations). FKK4 would appear as the most efficient compound since it is placed in the NE panel (GL, unpublished observations). However, this congener might suffer from metabolic liability with its N-protecting group possibly generating toxic aldehydes by oxidative cleavage in vivo. Unambiguously, the two most efficient compounds besides FKK4 are FKK5 and FKK6 which were therefore considered suitable lead compounds, as al so

IL-8 mRNA = experiment: TNF-α-induced IL-8 mRNA in human colonic enteroids (Calgary Protocol); type: cell-based; conditions: 10 μM, pair-wise vs DMSO
Description: Samples were immediately processed to yield isolated colonic crypts as previously described (Fernando et al, 2017). Isolated colonic crypts were embedded in Matrigel® (Corning) and cultured in Intesticult^tm Organoid Growth Media. Human organoids were pretreated for 6 h with either FKK5, FKK6, FKK9, or vehicle (DMSO), then stimulated with human recombinant TNF‐alpha in the presence of either treatment for an additional 12 h. Organoids were washed in PBS, disrupted in Tri Reagent® (Sigma, Oakville, ON, CAN), and frozen at −80°C. After thawing, chloroform was added, samples were centrifuged for 15 min, and the resulting aqueous phase was then added to equal volumes of 70% ethanol and further processed using the RNeasy mini kit (Qiagen). cDNA was synthesized using the QuantiTect RT kit (Qiagen) according to the manufacturer's protocol. Resulting cDNA was used as a template for quantitative real‐time PCR using Perfecta SYBR Green FastMix with ROX (QuantaBio). PCR and analysis were performed using a StepOne PCR System (Applied Biosystems). Gene expression was calculated relative to β‐actin expression and expressed as fold change of control. The primers used were as follows: Human®‐Actin (NM_001101), Human CYP3A4 (NM_001202855), and Human ABCB1 (NM_000927).

[3] = tested on: PXR occupancy of CYP3A4 and MDR1 promoter; experiment: Chromatin immunoprecipitation (ChIP) in PXR-transfected LS174T cells; conditions: 10 μM; relative to DMSO = 1; each column a repeat experiment (Fig 1d)
Description: LS174T cells were transfected with pSG5‐PXR (2 μg/plate/1 × 10^7 cells). […] Briefly, cells were chemically cross‐linked with formaldehyde in culture media for 15 min at room temperature. […] Cells were rinsed twice with cold PBS (phosphate‐buffered saline) (pH 7.5) and scraped in PBS supplemented with PIC (protease inhibitor cocktail).
Cell pellets were collected and immediately resuspended in immunoprecipitation (IP) buffer (150 mM NaCl (sodium chloride), 50 mM Tris–HCl at pH 7.5, 5 mM EDTA (ethylenediaminetetraacetic acid), 0.5% NP‐40, 1% Triton X‐100). The nuclei were centrifuged at 12,000 × g for 1 min and resuspended in fresh IP buffer. Chromatin was sheared by sonication to an average size of 0.2‐0.9 kb. Lysates were cleared by centrifugation at 12,000 × g for 10 min. […] 10% (wt/vol) Chelex 100 was added to the beads followed by boiling of the suspension and centrifugation at 12,000 × g for 1 min to obtain chromatin.
Purified chromatin DNA was used to perform RT–qPCR. […] Data were analyzed using SDS 2.2.1 program (ABI Biotechnology).

rats = tested on: rats; design: method as in Thermo Fisher Scientific Safety Sheet data; conditions: oral in rats; ref Thermo Fisher Scientific Safety Sheet data; cited from earlier work

Row | SMILES | aver (mean luciferase signal of H1-H4) (PXR [1]; 1 nM) | FOLD INDUCTION of PXR reporter luciferase activity (PXR [1]; 1 nM) | aver (mean luciferase signal of H1-H4) (PXR [1]; 10 nM) | FOLD INDUCTION of PXR reporter luciferase activity (PXR [1]; 10 nM) | aver (mean luciferase signal of H1-H4) (PXR [1]; 100 nM) | FOLD INDUCTION of PXR reporter luciferase activity (PXR [1]; 100 nM) | aver (mean luciferase signal of H1-H4) (PXR [1]; 1 uM) | FOLD INDUCTION of PXR reporter luciferase activity (PXR [1]; 1 uM) | aver (mean luciferase signal of H1-H4) (PXR [1]; 10 uM) | FOLD INDUCTION of PXR reporter luciferase activity (PXR [1]; 10 uM) | aver (mean luciferase signal of H1-H4) (PXR [1]; 25 uM) | FOLD INDUCTION of PXR reporter luciferase activity (PXR [1]; 25 uM) | FOLD INDUCTION (AZ-AHR luciferase) (AhR; 1 nM) | FOLD INDUCTION (AZ-AHR luciferase) (AhR; 10 nM) | FOLD INDUCTION (AZ-AHR luciferase) (AhR; 100 nM) | FOLD INDUCTION (AZ-AHR luciferase) (AhR; 1µM) | FOLD INDUCTION (AZ-AHR luciferase) (AhR; 10 µM) | also measured
1 | CC#CC(O)(c1ccncc1)c1cc2ccccc2n1COCC (stereo not shown) [FKK4] | 4365.5 | 1.4 fold | 4279.3 | 1.3 fold | 5499.3 | 1.7 fold | 21392.8 | 6.7 fold | 102793.8 | 32.2 fold | 122639.5 | 38.4 fold | 0.8 fold | 0.644 fold | 0.8 fold | 1.2 fold | 7.1 fold | AhR activation (in words) (AhR): variable degrees of dose‐dependent AhR activation profiles; LEM analysis prediction (PXR [2]): efficient agonist
2 | CCOCn1c(C(O)(Cc2cc3ccccc3[nH]2)c2ccncc2)cc2ccccc21 (racemic) [FKK9] | 4233.7 | 1.1 fold | 4676.8 | 1.2 fold | 5944.0 | 1.6 fold | 19145.3 | 5.0 fold | 98175.8 | 25.8 fold | 68593.5 | 18.0 fold | 0.6 fold | 0.4 fold | 1.3 fold | 15.9 fold | 584.9 fold | AhR activation (AhR; 10 μM): > 100 fold; TNF-α-induced IL-8 mRNA levels (IL-8 mRNA): did not show significant effects; CYP3A4 Fold Expression (2-ΔΔCt) [3]: 0.943 and 0.9893 and 1.172 and 1.777
3 | c1ccc2[nH]ccc2c1 [indole] | – | – | – | – | – | – | – | – | – | – | – | – | – | – | – | – | – | LD50 (rats): ~ 1 g/kg
